According to US10138207B2, “Benzomorphan analogs and the use thereof” (priority 2012, dated 2018):
Where two headings read alike, the source gives them in different places.

Tests used:
[1] = target: T1, κ opioid receptor (Homo sapiens, UniProt P41145); assay: biochemical; assay type: binding; design: expressed in transfected cells; host or cells: HEK 293 (in-house membrane prep); conditions: HEK-293 or CHO cells
[2] = target: T2, μ-opioid receptor (Homo sapiens, UniProt P35372); assay: μ-opioid receptor radioligand dose-displacement binding assay ([3H]-diprenorphine); design: expressed in transfected cells; host or cells: HEK-293 or CHO
T2 sequence (P35372 whole entry, species assumed): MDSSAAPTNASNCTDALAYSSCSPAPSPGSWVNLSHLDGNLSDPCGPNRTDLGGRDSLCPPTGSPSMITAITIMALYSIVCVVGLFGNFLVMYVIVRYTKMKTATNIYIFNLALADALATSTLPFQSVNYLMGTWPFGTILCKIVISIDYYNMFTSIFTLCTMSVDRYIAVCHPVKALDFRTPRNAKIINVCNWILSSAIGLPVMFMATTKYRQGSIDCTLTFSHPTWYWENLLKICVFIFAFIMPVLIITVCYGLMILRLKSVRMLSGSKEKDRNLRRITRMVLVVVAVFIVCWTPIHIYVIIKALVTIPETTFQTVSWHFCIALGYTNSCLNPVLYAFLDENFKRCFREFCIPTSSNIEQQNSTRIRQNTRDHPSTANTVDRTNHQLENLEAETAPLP
Method: Radioligand dose-displacement binding assays for μ-opioid receptors used 0.3 nM [^3H]-diprenorphine (Perkin Elmer, Shelton, Conn.), with […] membrane protein/well in a final volume of 500 μl binding buffer (10 mM MgCl2, 1 mM EDTA, 5% DMSO, 50 mM HEPES, pH 7.4). Reactions were carried out in the absence or presence of increasing concentrations of unlabeled naloxone. All reactions were conducted in 96-deep well polypropylene plates for 2 hr at room temperature. […] The data were analyzed using the one-site competition curve fitting functions in GraphPad PRISM™ v. 3.0 or higher (San Diego, Calif.), or an in-house function for one-site competition curve-fitting.

[3] = target: T1, κ opioid receptor; assay: κ-opioid receptor [35S]GTPγS functional assay, U-2 OS cells; assay type: biochemical; design: expressed in transfected cells; host or cells: U-2 OS (in-house membranes); conditions: U-2 OS cells; for EC50: bound in μM, read-out: GTPγS κ EC50; for Emax: relative to U69,593, read-out: GTPγS κ Emax
[4] = target: T2, μ-opioid receptor; assay: μ-opioid receptor [35S]GTPγS functional assay, U-2 OS cells; assay type: biochemical; design: expressed in transfected cells; host or cells: U-2 OS; conditions: U-2 OS cells; for EC50: read-out: GTPγS μ EC50; for Emax: relative to DAMGO, read-out: GTPγS μ Emax
[5] = target: T3, human opioid receptor-like receptor (ORL-1) (Homo sapiens, UniProt P41146); assay: ORL-1 receptor radioligand binding assay ([3H]-nociceptin); conditions: HEK-293 or CHO cells; bound in μM
T3 construct: host or cells: HEK-293
T3 sequence (P41146 whole entry): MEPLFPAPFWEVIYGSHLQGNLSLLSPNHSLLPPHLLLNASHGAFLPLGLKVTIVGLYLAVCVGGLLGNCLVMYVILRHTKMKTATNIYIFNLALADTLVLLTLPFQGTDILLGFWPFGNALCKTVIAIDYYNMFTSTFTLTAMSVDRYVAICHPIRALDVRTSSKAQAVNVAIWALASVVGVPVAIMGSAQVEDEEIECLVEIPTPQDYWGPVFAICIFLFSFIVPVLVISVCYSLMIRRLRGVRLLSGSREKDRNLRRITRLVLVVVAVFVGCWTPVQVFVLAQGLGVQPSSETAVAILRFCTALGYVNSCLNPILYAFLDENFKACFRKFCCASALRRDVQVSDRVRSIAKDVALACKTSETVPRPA
Method: Membranes from recombinant HEK-293 cells expressing the human opioid receptor-like receptor (ORL-1) (Perkin Elmer, Shelton, Conn.) are prepared by lysing cells in ice-cold hypotonic buffer (2.5 mM MgCl2, 50 mM HEPES, pH 7.4) (10 ml/10 cm dish) followed by homogenization with a tissue grinder/Teflon pestle. Membranes are collected by centrifugation at 30,000×g for 15 min at 4° C. and pellets resuspended in hypotonic buffer to a final concentration of 1-3 mg/ml. Protein concentrations are determined using the BioRad protein assay reagent with bovine serum albumen as standard. Aliquots of the ORL-1 receptor membranes are stored at −80° C.
Radioligand binding assays (screening and dose-displacement) use 0.1 nM [^3H]-nociceptin (Perkin Elmer, Shelton, Conn.; 87.7 Ci/mmole) with 12 μg membrane protein in a final volume of 500 μl binding buffer (10 mM MgCl2, 1 mM EDTA, 5% DMSO, 50 mM HEPES, pH 7.4). Non-specific binding is determined in the presence of […] unlabeled nociceptin (American Peptide Company). All reactions are performed in 96-deep well polypropylene plates for 1 h at room temperature. […] The data from screening and dose-displacement experiments are analyzed using Microsoft Excel and the curve fitting functions in GraphPad PRISM™, v. 3.0 or higher, respectively, or an in-house function for one-site competition curve-fitting.

[6] = target: T2, μ-opioid receptor; assay: μ-opioid receptor [35S]GTPγS functional assay, HEK-293 or CHO cells; conditions: for Emax: read-out: GTPγS μ Emax
[7] = target: T1, κ opioid receptor; assay: κ-opioid receptor [35S]GTPγS functional assay, HEK-293 or CHO cells; assay type: biochemical; design: expressed in transfected cells; host or cells: U-2 OS (in-house membranes); conditions: for Emax: relative to U69,593
[8] = HEK-293 or CHO cells, read-out: Ki Opioid Receptor μ
[9] = HEK-293 or CHO cells, bound in μM, read-out: GTPγS κ EC50
[10] = HEK-293 or CHO cells, read-out: GTPγS κ EC50

T1 sequence (P41145 whole entry): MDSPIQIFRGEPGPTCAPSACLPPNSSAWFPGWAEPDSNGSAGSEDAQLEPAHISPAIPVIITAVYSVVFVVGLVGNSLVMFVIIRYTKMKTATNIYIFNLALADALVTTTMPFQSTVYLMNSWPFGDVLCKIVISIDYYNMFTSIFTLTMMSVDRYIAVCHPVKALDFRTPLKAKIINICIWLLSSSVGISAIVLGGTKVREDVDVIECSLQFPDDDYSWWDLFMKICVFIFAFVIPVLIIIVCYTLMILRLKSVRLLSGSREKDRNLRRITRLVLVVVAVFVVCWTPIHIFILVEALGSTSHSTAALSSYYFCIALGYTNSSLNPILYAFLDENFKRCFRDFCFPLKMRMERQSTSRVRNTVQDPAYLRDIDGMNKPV

Compound	Ki [1] [µM]	Ki [2] [µM]	Ki [2, 8] [µM]	EC50 [3] [µM]	Emax [3] [%]	EC50 [4] [µM]	Emax [4] [%]	Ki [5] [µM]	EC50 [6] [µM]	Emax [6] [%]	EC50 [7, 9] [µM]	Emax ([7]; HEK-293 or CHO cells) [%]	EC50 [7, 10] [µM]	Ki ([1]; bound in μM) [µM]	EC50 [7] [µM]
CCN(CC)CCON=C1C2Cc3ccc(OC)cc3C1(C)CCN2C (stereo not drawn) [Compound 5, 8-methoxy-3,6-dimethyl-1,2,3,4,5,6-hexahydro-2,6-methanobenzo[d]azocin-11-one O-(2-(diethylamino)ethyl)oxime]	10.7	> 20	–	–	–	–	–	–	–	–	–	–	–	–	–
CN1CC[C@]2(C)c3cc(O)ccc3C[C@H]1[C@@H]2NCCc1ccc(S(N)(=O)=O)cc1 [Compound 95, 4-(2-(((2S,6R,11R)-8-hydroxy-3,6-dimethyl-1,2,3,4,5,6-hexahydro-2,6-methanobenzo[d]azocin-11-yl)amino)ethyl)benzenesulfonamide]	4.6 ± 0.764	–	1.76 ± 0.324	> 20	-1	1.44 ± 0.0447	79.7 ± 8.41	> 20	2.12 ± 0.204	78 ± 3.06	–	–	–	–	–
COc1ccc2c(c1)C1(C)CCN(C)C(C2)C1=NOCC(=O)O (stereo not drawn) [Compound 1, 2-(((8-methoxy-3,6-dimethyl-1,2,3,4,5,6-hexahydro-2,6-methanobenzo[d]azocin-11-ylidene)amino)oxy)acetic Acid]	12.1	> 20	–	–	–	–	–	–	–	–	–	–	–	–	–
CN1CC[C@]2(C)c3cc(O)ccc3C[C@@H]1[C@H]2Nc1ccc(CCS(N)(=O)=O)cc1 [Compound 50, 2-(4-(((2R,6R,11S)-8-hydroxy-3,6-dimethyl-1,2,3,4,5,6-hexahydro-2,6-methanobenzo[d]azocin-11-yl)amino)phenyl)ethanesulfonamide]	0.0583 ± 0.0101	–	–	> 20	9.78 ± 2.97	0.042 ± 0.0109	86.5 ± 4.14	–	0.189 ± 0.0137	93.8 ± 2.17	> 20	–	–	–	–
CN1CC[C@]2(C)c3cc(O)ccc3C[C@H]1[C@H]2NCCc1ccc(S(N)(=O)=O)cc1 [Compound 93, 4-(2-(((2S,6R,11S)-8-hydroxy-3,6-dimethyl-1,2,3,4,5,6-hexahydro-2,6-methanobenzo[d]azocin-11-yl)amino)ethyl)benzenesulfonamide]	5.35 ± 0.541	–	3.7 ± 0.0914	> 20	2	4.56 ± 0.743	80.7 ± 4.48	> 20	3.14 ± 0.79	92 ± 4.3	–	–	–	–	–
CCC=C1C2Cc3ccc(OC)cc3C1(C)CCN2C (stereo not drawn) [Compound 6, 8-methoxy-3,6-dimethyl-11-propylidene-1,2,3,4,5,6-hexahydro-2,6-methanobenzo[d]azocine]	3.16 ± 1.24	> 20	–	–	–	–	–	–	–	–	–	–	–	–	–
CN1CC[C@@]2(C)c3cc(O)ccc3C[C@@H]1[C@H]2NCCc1ccc(S(N)(=O)=O)cc1 [Compound 94, 4-(2-(((2R,6S,11S)-8-hydroxy-3,6-dimethyl-1,2,3,4,5,6-hexahydro-2,6-methanobenzo[d]azocin-11-yl)amino)ethyl)benzenesulfonamide]	0.0168 ± 0.00251	–	0.0368 ± 0.0121	> 20	0	0.0274 ± 0.0042	85.3 ± 5.93	> 20	0.0408 ± 0.00276	85.3 ± 4.98	> 20	4.6 ± 0.4	–	–	–
COc1ccc2c(c1)C1(C)CCN(C)C(C2)C1=NO (stereo not drawn) [Compound 2, 8-methoxy-3,6-dimethyl-1,2,3,4,5,6-hexahydro-2,6-methanobenzo[d]azocin-11-one Oxime]	2.58 ± 0.122	> 20	–	–	–	–	–	–	–	–	–	–	–	–	–
CN1CC[C@@]2(C)c3cc(O)ccc3C[C@@H]1[C@@H]2NCCc1ccc(S(N)(=O)=O)cc1 [Compound 92, 4-(2-(((2R,6S,11R)-8-hydroxy-3,6-dimethyl-1,2,3,4,5,6-hexahydro-2,6-methanobenzo[d]azocin-11-yl)amino)ethyl)benzenesulfonamide]	0.163 ± 0.00383	–	0.0545 ± 0.0173	> 20	1	0.149 ± 0.0255	97.3 ± 3.53	> 20	0.0689 ± 0.016	100 ± 3.12	> 20	3.5 ± 1.71	–	–	–
CN(C(=O)/C=C/c1ccoc1)[C@H]1C2Cc3ccc(O)cc3[C@@]1(C)CCN2CC1CC1 [Compound 83, (E)-N-((6R,11R)-3-(cyclopropylmethyl)-8-hydroxy-6-methyl-1,2,3,4,5,6-hexahydro-2,6-methanobenzo[d]azocin-11-yl)-3-(furan-3-yl)-N-methylacrylamide]	0.00015 ± 2e-05	–	0.00178 ± 0.00038	–	–	–	–	–	0.0106 ± 0.00118	92.7 ± 5.21	–	77.7 ± 1.76	0.00267 ± 0.00084	–	–
COc1ccc2c(c1)[C@@]1(C)CCN(C)C(C2)[C@H]1OCC(N)=O [Compound 4, 2-(((6R,11S)-8-methoxy-3,6-dimethyl-1,2,3,4,5,6-hexahydro-2,6-methanobenzo[d]azocin-11-yl)oxy)acetamide]	–	> 20	–	–	–	–	–	–	–	–	–	–	–	> 20	–
COc1ccc2c(c1)[C@@]1(C)CCN(C)C(C2)C1N1CCCC(C(=O)O)C1 (stereo partly drawn) [Compound 74, 1-((6R)-8-methoxy-3,6-dimethyl-1,2,3,4,5,6-hexahydro-2,6-methanobenzo[d]azocin-11-yl)piperidine-3-carboxylic acid]	0.0241 ± 0.00593	0.23 ± 0.0438	–	–	–	–	–	–	0.639 ± 0.147	31.7 ± 0.67	–	53 ± 2.31	–	–	0.637 ± 0.0651
COc1ccc2c(c1)[C@@]1(C)CCN(CC3CC3)C(C2)C1N(C)C(=O)/C=C/c1ccoc1 (stereo in doubt) [Compound 57, (E)-N-((2R,6R,11S)-3-(cyclopropylmethyl)-8-methoxy-6-methyl-1,2,3,4,5,6-hexahydro-2,6-methanobenzo[d]azocin-11-yl)-3-(furan-3-yl)-N-methylacrylamide]	0.00461 ± 0.00143	–	0.236 ± 0.0702	–	–	–	–	–	0.315 ± 0.0479	112 ± 7.22	–	85.7 ± 3.93	0.351 ± 0.115	–	–
COc1ccc2c(c1)[C@@]1(C)CCN(C)C(C2)[C@@H]1OCC(N)=O [Compound 3, 2-(((6R,11R)-8-methoxy-3,6-dimethyl-1,2,3,4,5,6-hexahydro-2,6-methanobenzo[d]azocin-11-yl)oxy)acetamide]	–	> 20	–	–	–	–	–	–	–	–	–	–	–	> 20	–
